2 compounds from US12036212B2, “Enhancement of tumor response to chemotherapy by activation of the asmase/ceramide pathway through timed administration of a short-acting anti-angiogenic agent” (Memorial Sloan-Kettering Cancer Center, priority 2014, dated 2024) can be followed below.

Test [1] deals with ceramide. The experiment in a line: Ceramide generation in HCAEC. The test is classed as cell-based, human. The conditions noted are these: paclitaxel 100 nM, etoposide 50 μM, cisplatin 0.1-50 μM. The procedure:
HCAEC were obtained from Clonetics™ Coronary Artery Endothelial Cell Systems (Cambrex Bio Science Inc.). For HCAEC culturing and sub-culturing Clonetics cell system components were used: EBM®-2, Endothelial Cell Basal Medium-2 with addition of Clonetics EGM-2-MV SingleQuots containing growth supplements (Cambrex) (Biomedical Technologies, Inc.). For sub-culturing, monolayers were dissociated with Clonetics® Trypsin/EDTA solution for 2-3 min at 22° C. at a split ratio of 1:4 to expand the cell population for experiments. HCAEC cultures were maintained at 37° C. in 5% CO2 humidified incubators.
After treatment, cells were placed on ice, washed with cold PBS, and lipids were extracted by addition of scraped cells in methanol to an equal volume of chloroform and 0.6 volume of buffered saline/EDTA solution (135 mM NaCl, 4.5 mM KCl, 1.5 mM CaCl2), 0.5 mM MgCl2, 5.6 mM glucose, 10 mM HEPES pH 7.2, 10 mM EDTA). […] After 30 minutes at room temperature, the reaction was stopped by extraction of lipids with 1 ml of chloroform:methanol:1 N HCl (100:100:1), 170 μl of buffered saline solution (BSS) (135 mM NaCl, 1.5 mM CaCl2, 0.5 mM MgCl2, 5.6 mM glucose, and 10 mM HEPES (pH 72), and 30 μl of 100 mM EDTA. The lower organic phase was dried under N2. Ceramide-1 phosphate was resolved by thin-layer chromatography on silica gel 60 plates (Whatman) using a solvent system of chloroform:methanol:acetic acid (65:15:5, v/v/v) and detected by autoradiography, and incorporated ^32P was quantified by liquid scintillation counting. The level of ceramide was determined by comparison with a standard curve generated concomitantly of known amounts of ceramide.
(§1) To determine the generality of the results observed, experiments were carried out using an additional endothelial cell line, human coronary artery endothelial cells (HCAEC); experiments were also performed using a different chemotherapeutic agent. […] Next, HCAEC were treated with paclitaxel (100 nM) (data not shown) and etoposide (50 μM) (FIG. 1F), and ceramide generation was evaluated. […]

Test [2] relates to ASMase. The experiment in a line: ASMase activity radioenzymatic assay in BAEC. It counts as cell-based, bovine. The procedure:
(§2) BAEC were established from the intima of bovine aorta as described^1. Stock cultures were grown in 100-mm dishes in Dulbecco's modified Eagle's medium (DMEM) supplemented with glucose (1 g/liter), 5% heat-inactivated calf serum (CS), penicillin (50 units/ml), and streptomycin (50 μg/ml). Purified human recombinant bFGF (1 ng/ml; R&D Systems, Inc., Minneapolis, MN) was added every other day during the exponential growth phase. […] These plateau phase cells were either used for experiments, or further sub-cultured (up to a maximum of 10 times) at a split ratio of 1:8. For sub-culturing, monolayers were dissociated with STV (0.05% trypsin and 0.02% EDTA in PBS) for 2-3 min at 22° C., washed twice in 5% CS-DMEM, and resuspended in DMEM with supplements as above. These mild conditions of trypsinization were sufficient to detach cells but not injure, stimulate, or affect cell function in a detectable way. BAEC were maintained at 37° C. in 10% CO2 humidified incubators.
ASMase activity was quantified by radioenzymatic assay using [^14C-methylcholine]sphingomyelin (Amersham) as substrate as described (Schissel et al. J Biol Chem, 271, 18431-18436, 1996). Cell lysates were incubated with [^14C-methylcholine]-sphingomyelin substrate (0.026 mCi/9.5 nmol) in 250 mM sodium acetate, pH 5.0 supplemented with 0.1% Triton X-100 and 1 mM EDTA or 0.1 mM ZnCl. Reactions were terminated after 1 h with CHCl3:MeOH:1N HCl (100:100:1, v/v/v), and [^14C-methylcholine]phosphocholine product in the aqueous layer of the Folch extract was quantified using a Beckman Packard 2200 CA Tricarb scintillation counter. For detection of ASMase activity in patients, 10 μl of serum was used.
To test the effect of chemotherapy on ASMase signaling and ceramide production, BAEC were treated with paclitaxel (100 nM) and ASMase activity was determined by radioenzymatic assay (Rotolo et al, infra) using [^14C-methylcholine] sphingomyelin (Amersham) as substrate (FIG. 1A). Induction of ASMase activity was observed within 5 minutes after treatment, and the activation continued for 30 minutes. Ceramide generation was monitored using the diacylglycerol kinase assay (Stancevic et al. PLoS ONE 8, e69025, 2013). […] In further support of this, pre-incubation of BAEC with nystatin prior to treatment with chemotherapy inhibits chemotherapy-induced apoptosis (FIG. 3).
To determine the generality of the results observed, experiments were carried out using an additional endothelial cell line, human coronary artery endothelial cells (HCAEC); experiments were also performed using a different chemotherapeutic agent. […] Next, HCAEC were treated with paclitaxel (100 nM) (data not shown) and etoposide (50 μM) (FIG. 1F), and ceramide generation was evaluated.
To further establish the generality of ASMase activation by various chemotherapeutic agents, BAEC and HCAEC were treated with increasing doses of cisplatin (0.1-50 μM) (data not shown). […] The ASMase/ceramide pathway was activated by chemotherapeutic agents that belong to different classes of chemotherapeutic agents, such as: taxanes, topoisomerase inhibitors, and nucleoside analog metabolic inhibitors. Since such chemotherapy agents are characterized by distinct mechanisms of action in tumor cells, it is surprising that a group of such distinct agents converges on a common molecular (ASMase/ceramide) axis in endothelium. The present confirmation that distinct chemotherapeutic agents activate the ASMase/ceramide pathway permits the present inventors to take into account the results of experiments using single dose radiotherapy, which has been reported to activate the same pathway (Rao, S. S. et al., Axitinib sensitization of high Single Dose Radiotherapy. Radiotherapy and Oncology: Journal of the European Society for Therapeutic Radiology and Oncology 111, 88-93, doi:10.1016/j.radonc.2014.02.010 (2014)).
Gemcitabine was able to activate ASMase in cultured endothelial cells. […]

Test [3] has as its system ceramide. The test can be described thus: Ceramide generation (diacylglycerol kinase assay) in BAEC. The test is classed as cell-based, bovine. The conditions noted are these: paclitaxel 100 nM; for Ceramide generation: etoposide 50 μM, cisplatin 0.1-50 μM. The procedure: as §2
After treatment, cells were placed on ice, washed with cold PBS, and lipids were extracted by addition of scraped cells in methanol to an equal volume of chloroform and 0.6 volume of buffered saline/EDTA solution (135 mM NaCl, 4.5 mM KCl, 1.5 mM CaCl2), 0.5 mM MgCl2, 5.6 mM glucose, 10 mM HEPES pH 7.2, 10 mM EDTA). Lipids in the organic phase extract were dried under N2 and subjected to mild alkaline hydrolysis (0.1 N methanolic KOH for 1 hour at 37° C.) to remove glycerophospholipids. Samples were re-extracted, and the organic phase was dried under N2. Ceramide contained in each sample was resuspended in a 100 μl reaction mixture containing 150 μg of cardiolipin, 280 μM diethylenetriaminepentaacetic acid, 51 mM octyl-β-glucopyranoside (Calbiochem), 50 mM NaCl, 51 mM imidazole, 1 mM EDTA, 12.5 mM MgCl2, 2 mM dithiothreitol, 0.7% glycerol, 70 μM β-mercaptoethanol, 1 mM ATP, 10 μCi of [γ-^32P]ATP, 35 μg/ml Escherichia coli diacylglycerol kinase (Calbiochem) at pH 6.5. After 30 minutes at room temperature, the reaction was stopped by extraction of lipids with 1 ml of chloroform:methanol:1 N HCl (100:100:1), 170 μl of buffered saline solution (BSS) (135 mM NaCl, 1.5 mM CaCl2, 0.5 mM MgCl2, 5.6 mM glucose, and 10 mM HEPES (pH 72), and 30 μl of 100 mM EDTA. The lower organic phase was dried under N2. Ceramide-1 phosphate was resolved by thin-layer chromatography on silica gel 60 plates (Whatman) using a solvent system of chloroform:methanol:acetic acid (65:15:5, v/v/v) and detected by autoradiography, and incorporated ^32P was quantified by liquid scintillation counting. The level of ceramide was determined by comparison with a standard curve generated concomitantly of known amounts of ceramide.
To test the effect of chemotherapy on ASMase signaling and ceramide production, BAEC were treated with paclitaxel (100 nM) and ASMase activity was determined by radioenzymatic assay (Rotolo et al, infra) using [^14C-methylcholine] sphingomyelin (Amersham) as substrate (FIG. 1A). […] Ceramide generation was monitored using the diacylglycerol kinase assay (Stancevic et al. PLoS ONE 8, e69025, 2013). […]
as §1

Bounds are passed on as bounds.

For `N.N.[Cl][Pt][Cl]` [cisplatin], the Ceramide generation result was “failed to activate ASMase and result in generation of ceramide” in test [1]; “failed to activate ASMase and result in generation of ceramide” in test [3]. The ASMase activation result in test [2] (etoposide 50 μM, cisplatin 0.1-50 μM, gemcitabine 100 nM time-course) is recorded as “failed to activate ASMase”.

With `CC(=O)O[C@H]1C(=O)[C@@]2(C)[C@H]([C@H](OC(=O)c3ccccc3)[C@]3(O)C[C@H](OC(=O)[C@H](O)[C@@H](NC(=O)c4ccccc4)c4ccccc4)C(C)=C1C3(C)C)[C@]1(OC(C)=O)CO[C@@H]1C[C@@H]2O` [paclitaxel], the Ceramide generation entry in test [1] is “leads to the generation of ceramide”. Also, in test [2] (paclitaxel 100 nM), the “ASMase activation continued for” value came out at 30 min and the “Induction of ASMase activity, time after treatment” value is at most 5 min. Moreover, in test [3], the “Ceramide generation persisted for” value stood at 30 min and the Ceramide generation entry is given as “peaked within minutes”.
